Assay results from patent publication US20100048479A1, “ADRENAL GRK2 ACTIVITY AS A THERAPEUTIC TARGET FOR HEART FAILURE” (priority 2006, published 2010).
Like-named read-outs stand apart in the source and are kept apart here.

Columns and labels:
[1] = system: CSQ/Tg mouse-derived chromaffin cells; test: In vitro catecholamine secretion from chromaffin cells of CSQ/Tg and NLC mice (nicotine stimulus, UK14304 pre-treatment); assay type: cell-based; conditions: for Inhibition of Epi and NE secretion in response to nicotine: 10 μM UK14304 pre-treatment; for EC50: Mus musculus, n=6
From the text: (§1) Experimental Procedures: Adrenal chromaffin cell isolation and culture: The animal models of heart failure: mice with myocardial-targeted overexpression of calsequestrin (CSQ/Tg mice); male Sprague-Dawley rats (450-500 g; Harlan) ten weeks post-cryo-myocardial infarction (cryo-MI) (HF rats); as well as CSQ/βARKct mice, were previously established and characterized. Harding et al., 98 P.N.A.S. USA, 5809-14 (2001); Most et al., 114 J. Clin. Invest. 1550-63 (2004). Nontransgenic littermate mice were used as healthy controls for the mouse heart failure model. Chromaffin cells were isolated from adrenal glands excised from these animals and cultured as described previously in Brede et al., 2003. […] Cells from separate isolations were used in each experiment.
(§2) Plasma and in vitro catecholamine secretion measurements: Plasma Epi and NE levels were determined by ELISA, performed on rat and mouse plasma samples with the BI-CAT EIA kit from ALPCO Diagnostics (Windham, N.H.). In vitro Epi and NE secretion in the supernatant of cultured chromaffin cells was measured by use of the same ELISA kit essentially as described previously by Wilson & Kirschner, 3J. Neurosci. 1971-78 (1983). In vitro catecholamine (CA) secretion measurements. Briefly, 48 hrs post-isolation, chromaffin cells were placed in a balanced salts buffer and stimulated with 20 μM nicotine for 30 min, following pre-treatment with 10 μM UK14304 (Sigma-Aldrich) or vehicle for 30 min. At the end of nicotine treatment, the supernatant was collected for determination of its CA content. Adenoviral-transfected cells were infected 48 hrs post-isolation and cells were subjected to the various treatments 24 hrs after transfection (72 hrs post-isolation). In all experiments, the supernatants used for CA measurements were collected from cultures of equal numbers of cells as determined by cell counting and post-experiment protein determination in harvested cells.

[2] = system: HF rat chromaffin cells; test: In vitro catecholamine secretion from chromaffin cells of HF and sham rats (nicotine stimulus, UK14304 pre-treatment); assay type: cell-based; conditions: for EC50: Rattus norvegicus
From the text: as §1, §2

[3] = system: chromaffin cells isolated from HF or sham-operated rats; conditions: 10 μM UK14304 pretreatment
Protocol: Calibration and assessment of intracellular Ca^2+ transients in chromaffin cells in response to K^+-induced depolarization were performed essentially as described. Brede, 2003; Zhou & Neher, 469 J. Physiol. 245-73 (1993). Changes in intracellular Ca^2+ were monitored fluorimetrically using the Ca^2+-sensitive probe Fura 2 (1 μM). The recording system included a Zeiss, Axiovert S170 inverted microscope fitted with epifluorescence (monochromator TILL Polychrome II, Germany). Cells were alternatively illuminated at 340 nm and 380 nm at a frequency of 140 Hz. Emission for each excitation wavelength was filtered at 510 nm and digitized using interface (EPC9, HEKA, Germany). […] Chromaffin cells isolated from HF or sham-operated rats were exposed to 10 μM UK14304 or vehicle for 30 min in culture medium containing a fixed Ca^2+ concentration of 2.5 mM, and then 150 mM KCl was added to induce depolarization. Only round-shaped, healthy, and attached chromaffin cells with a resting 340/380 ratio lower than 1 were selected for measurement.

[4] = system: rat primary chromaffin cells; test: βarr1 membrane recruitment in rat primary chromaffin cells; assay type: cell-based; conditions: cells infected with GFP, 10 μM UK14304 for 8 min
Protocol: β-arrestin membrane recruitment: βarr1 recruitment to rat primary chromaffin cell membranes or whole adrenal gland-derived plasma membranes was measured by western blotting in membrane preparations, essentially as described previously in Perry et al., 198 Science 834-36 (2002). Cultured chromaffin cells, isolated from rat adrenal glands, were transfected with the indicated recombinant adenoviruses and 24 hrs post-infection they were treated with vehicle or 10 μM UK14304 for 8 min. The cells were then harvested and plasma membranes prepared by hypotonic lysis with 5 mM TrisCl, 5 mM EDTA, pH 7.4, and subsequent ultracentrifugation at 47.000×g. The membranes were resuspended in RIPA buffer, containing Triton 0.5% and protease inhibitors, and then fractions of membrane lysates containing 50 μg of protein were loaded for SDS-PAGE, and subsequently western blotted with an antibody against rat βarr1 and −2 (A1CT40, a generous gift from Dr. R. J. Lefkowitz, Duke Univ. Medical Center, Durham, N.C.). Plasma membrane preparations from whole adrenal glands excised from in vivo infected rats were obtained by the same procedure. Blotting for actin in the same membrane lysates was also performed as loading control. βarr1 membrane recruitment was quantified as the densitometric ratio of βarr1 and actin bands detected in each sample.

[5] = system: chromaffin cells
Protocol: as §2
Following this period, in vitro CA secretion assays were performed using nicotine to activate nicotinic cholinergic receptors (the physiological stimulus for CA secretion from these cells) and the α2AR agonist UK14304 to activate these negative feedback receptors.

[6] = system: α2AR; conditions: HF animal models and human heart failure patients; cited from earlier work
[7] = system: α2AR; test: Moxonidine treatment of HF rats, plasma catecholamine levels; assay type: in vivo, rat; conditions: 7d of moxonidine 1 mg/kg/d intraperitoneally
Protocol: In vivo adrenal gene delivery: All animal procedures and experiments were performed in accordance with the guidelines of the Institutional Animal Care and Use Committee of Thomas Jefferson University. For adrenal-specific in vivo gene delivery in HF rats, adenovirus was delivered directly to the adrenal gland using a surgical technique. Rats with chronic heart failure ten weeks after myocardial infarction were directly injected with virus into both of their adrenal glands, immediately after a transversal cut of the median abdomen was made and ventral visceral organs temporarily placed on the side so as to expose the retroperitoneal region. […] HF rats were treated with either AdβARKct or AdGFP as a control. […] For moxonidine treatment of HF rats, systemic administration of 1.0 mg/kg/d of moxonidine (delivered via a daily intraperitoneal injection) was initiated at the time of in vivo adrenal gene delivery and continued for seven days, at which time plasma was taken for determination of circulating catecholamine levels (see below).
as §2, with “Adenoviral-transfected cells were infected 48 hrs post-isolation and cells were subjected to the various treatments 24 hrs after transfection (72 hrs post-isolation).” left out

[8] = system: α2AR; conditions: MOXSE and MOXCON trials; cited from earlier work

## Brc1c(NC2=NCCN2)ccc2nccnc12 [UK14304]
[1]; CSQ/Tg mouse-derived chromaffin cells
  Inhibition of Epi and NE secretion in response to nicotine: completely fails to inhibit
[1]; CSQ/Tg mouse-derived chromaffin cells, AdGFP cells, mean±s.e.m., read-out: EC50 of UK14304-mediated inhibition of Epi secretion
  EC50: 5500 ± 1300 nM
[1]; CSQ/Tg mouse-derived chromaffin cells, AdGFP cells, read-out: EC50 of UK14304-mediated inhibition of NEpi secretion
  EC50: 8000 ± 2630 nM
[1]; CSQ/Tg mouse-derived chromaffin cells, AdβARKct cells, read-out: EC50 of UK14304-mediated inhibition of Epi secretion
  EC50: 200 ± 1.5 nM
[1]; CSQ/Tg mouse-derived chromaffin cells, AdβARKct cells, read-out: EC50 of UK14304-mediated inhibition of NEpi secretion
  EC50: 50 ± 1.4 nM
[1]; control (NLC) cells
  Inhibition of Epi and NE secretion in response to nicotine: attenuates catecholamine release
[1]; without nicotine
  Catecholamine secretion, UK14304 pre-treatment alone: no effect
[2]; 10 μM UK14304 pre-treatment
  Inhibition of secretion of both catecholamines in response to nicotine: fails to inhibit secretion
[2]; AdGFP cells, n=6, read-out: EC50 of UK14304-mediated inhibition of Epi secretion
  EC50: 6400 ± 2500 nM
[2]; AdGFP cells, n=6, read-out: EC50 of UK14304-mediated inhibition of NEpi secretion
  EC50: 680 ± 25.1 nM
[2]; AdβARKct cells, n=6, read-out: EC50 of UK14304-mediated inhibition of Epi secretion
  EC50: 100 ± 5.2 nM
[2]; AdβARKct cells, n=6, read-out: EC50 of UK14304-mediated inhibition of NEpi secretion
  EC50: 110 ± 1.2 nM
[3]; HF chromaffin cells
  Depolarization-induced Ca2+ entry: fails to significantly alter
[3]; control (sham) cells
  Depolarization-induced Ca2+ entry: significantly inhibited
[4]
  βarr1 recruitment to chromaffin cell membranes in response to α2AR stimulation: large βarr1 recruitment
[5]; cells from AdβARKct-treated rats, 10 μM UK14304
  Ability of UK14304 to inhibit CA secretion: normal and similar to control cells
[5]; chromaffin cells from AdGRK2-treated rats, 10 μM UK14304
  Effect of UK14304 on CA secretion in response to nicotine: lost
[5]; chromaffin cells from control AdGFP-treated rats, 10 μM UK14304
  Effect of UK14304 on CA secretion in response to nicotine: abolishes CA secretion

## Clc1cccc(Cl)c1N=C1NCCN1 [clonidine]
[6]
  Sympatholytic response to clonidine administration: diminished sympatholytic responses

## COc1nc(C)nc(Cl)c1N=C1NCCN1 [moxonidine]
[7]; adrenal AdGFP-treated HF rats
  Circulating Epi levels: virtually no effect
  Circulating NEpi levels: lowered
[7]; adrenal AdβARKct-treated HF rats
  NE and Epi plasma levels: further significantly reduced
[8]
  Reason for early termination of the trials: excessive adverse effects and fatalities
  SNS activity in heart failure patients: significant reduction of SNS activity

## CN1CCCC1c1cccnc1 (stereo not shown) [nicotine]
[5]; chromaffin cells from AdGFP-, AdGRK2- and AdβARKct-treated rats, 20 μM nicotine
  Nicotine-stimulated Epi and NE secretion: to an equal extent
